Data from patent US20020177180A1, “pH-indicator based assay for selective enzymes” (ThermoGen, Inc., priority 1998, published 2002).

Key:
Assay in all cases: Initial screening of ThermoGen esterases toward esters 1-31 (pH indicator), specific activity
Format in all cases: biochemical
Details in all cases: 1 mM substrate, pH 7.2, 7 vol % acetonitrile, 25° C.
esterase E011 = system: esterase E011
Procedure: (§1) Initial screening measures the initial rate of hydrolysis of different esters. The rate of reaction was measured by monitoring the release of protons using a pH indicator, 4-nitrophenol. In this assay, the yellow color of the phenoxide disappears as the reaction proceeds. The amount of ester hydrolyzed can be measured quantitatively, as is known in the art.

esterase E020 = system: esterase E020
Procedure: as §1
(§2) To survey the substrate selectivity of the ThermoGen esterases, the ability of the enzymes to hydrolyze thirty-one different commercially-available esters, Scheme 1 (FIG. 9, Table 6).

esterase E014 = system: esterase E014
Procedure: as §1, §2

esterase E012 = system: esterase E012
Procedure: as §1, §2

esterase E015 = system: esterase E015
Procedure: as §1, §2

esterase E016 = system: esterase E016
Procedure: as §1, §2

esterase E006 = system: esterase E006
Procedure: as §1, §2

| SMILES | Specific activity, esterase E011 (esterase E011) | Specific activity, esterase E020 (esterase E020) | Specific activity, esterase E014 (esterase E014) | Specific activity, esterase E012 (esterase E012) | Specific activity, esterase E015 (esterase E015) | Specific activity, esterase E016 (esterase E016) | Specific activity, esterase E006 (esterase E006) |
| --- | --- | --- | --- | --- | --- | --- | --- |
| CCCCCCCCCCCCCC(=O)Oc1ccc2nc3ccc(=O)cc-3oc2c1 [Substrate 6, Resorufin tetradecanoate, reference compound] | 280 mmol ester hydrolyzed/min/mg protein | 1200 mmol ester hydrolyzed/min/mg protein | 170 mmol ester hydrolyzed/min/mg protein | 27 mmol ester hydrolyzed/min/mg protein | 330 mmol ester hydrolyzed/min/mg protein | 15 mmol ester hydrolyzed/min/mg protein | 0.55 mmol ester hydrolyzed/min/mg protein |
| CC(C(=O)Oc1ccc([N+](=O)[O-])cc1)c1ccccc1 (racemic) [Substrate 1, (±)-4-nitrophenyl-2-phenylpropanoate, reference compound] | 5.1 mmol ester hydrolyzed/min/mg protein | 110 mmol ester hydrolyzed/min/mg protein | 1.2 mmol ester hydrolyzed/min/mg protein | 3.1 mmol ester hydrolyzed/min/mg protein | 89 mmol ester hydrolyzed/min/mg protein | 63 mmol ester hydrolyzed/min/mg protein | 120 mmol ester hydrolyzed/min/mg protein |
| C=C(C)OC(C)=O [Substrate 27] | 45 mmol ester hydrolyzed/min/mg protein | 3.3 mmol ester hydrolyzed/min/mg protein | 0.73 mmol ester hydrolyzed/min/mg protein | 2.4 mmol ester hydrolyzed/min/mg protein | 100 mmol ester hydrolyzed/min/mg protein | 49 mmol ester hydrolyzed/min/mg protein | 69 mmol ester hydrolyzed/min/mg protein |
| CC(C)Cc1ccc(C(C)C(=O)Oc2ccc([N+](=O)[O-])cc2)cc1 (racemic) [Substrate 2, (±)-4-nitrophenyl 2-(4-isobutylphenyl)propanoate, reference compound] | 160 mmol ester hydrolyzed/min/mg protein | 370 mmol ester hydrolyzed/min/mg protein | 170 mmol ester hydrolyzed/min/mg protein | 11 mmol ester hydrolyzed/min/mg protein | 350 mmol ester hydrolyzed/min/mg protein | 220 mmol ester hydrolyzed/min/mg protein | 260 mmol ester hydrolyzed/min/mg protein |
| CCCCCCCC(=O)OCC [Substrate 15] | 11 mmol ester hydrolyzed/min/mg protein | 2.6 mmol ester hydrolyzed/min/mg protein | 5.1 mmol ester hydrolyzed/min/mg protein | 19 mmol ester hydrolyzed/min/mg protein | 120 mmol ester hydrolyzed/min/mg protein | 83 mmol ester hydrolyzed/min/mg protein | 160 mmol ester hydrolyzed/min/mg protein |
| CCCCOC(C)=O [Substrate 25] | 0.5 mmol ester hydrolyzed/min/mg protein | 2.0 mmol ester hydrolyzed/min/mg protein | 0.21 mmol ester hydrolyzed/min/mg protein | <2 mmol ester hydrolyzed/min/mg protein | 1.0 mmol ester hydrolyzed/min/mg protein | 13 mmol ester hydrolyzed/min/mg protein | 0.54 mmol ester hydrolyzed/min/mg protein |
| COC(=O)c1ccc(CO)cc1 [Substrate 23] | <0.1 mmol ester hydrolyzed/min/mg protein | 0.47 mmol ester hydrolyzed/min/mg protein | <0.1 mmol ester hydrolyzed/min/mg protein | <2 mmol ester hydrolyzed/min/mg protein | 0.13 mmol ester hydrolyzed/min/mg protein | <2 mmol ester hydrolyzed/min/mg protein | 0.27 mmol ester hydrolyzed/min/mg protein |
| CCOC(=O)CBr [Substrate 18] | 5.5 mmol ester hydrolyzed/min/mg protein | 3.1 mmol ester hydrolyzed/min/mg protein | 37 mmol ester hydrolyzed/min/mg protein | 5.9 mmol ester hydrolyzed/min/mg protein | 100 mmol ester hydrolyzed/min/mg protein | 16 mmol ester hydrolyzed/min/mg protein | 4.8 mmol ester hydrolyzed/min/mg protein |
| C=COC(=O)CCCCCCC [Substrate 5] | 260 mmol ester hydrolyzed/min/mg protein | 1200 mmol ester hydrolyzed/min/mg protein | 8.0 mmol ester hydrolyzed/min/mg protein | 50 mmol ester hydrolyzed/min/mg protein | 320 mmol ester hydrolyzed/min/mg protein | 1200 mmol ester hydrolyzed/min/mg protein | 960 mmol ester hydrolyzed/min/mg protein |
| NC(Cc1ccccc1)C(=O)Oc1ccc([N+](=O)[O-])cc1.O=C(O)C(F)(F)F (racemic) [Substrate 3, D,L-phenylalanine-4-nitrophenol ester TFA salt, reference compound] | 220 mmol ester hydrolyzed/min/mg protein | 550 mmol ester hydrolyzed/min/mg protein | 180 mmol ester hydrolyzed/min/mg protein | 37 mmol ester hydrolyzed/min/mg protein | 280 mmol ester hydrolyzed/min/mg protein | 230 mmol ester hydrolyzed/min/mg protein | 410 mmol ester hydrolyzed/min/mg protein |
| COC(=O)Cc1ccccc1 [Substrate 22] | <0.1 mmol ester hydrolyzed/min/mg protein | 0.28 mmol ester hydrolyzed/min/mg protein | <0.1 mmol ester hydrolyzed/min/mg protein | <2 mmol ester hydrolyzed/min/mg protein | 0.14 mmol ester hydrolyzed/min/mg protein | <2 mmol ester hydrolyzed/min/mg protein | 0.16 mmol ester hydrolyzed/min/mg protein |
| CCCOC(C)=O [Substrate 24] | 0.25 mmol ester hydrolyzed/min/mg protein | 0.85 mmol ester hydrolyzed/min/mg protein | <0.1 mmol ester hydrolyzed/min/mg protein | 2.8 mmol ester hydrolyzed/min/mg protein | 0.26 mmol ester hydrolyzed/min/mg protein | <2 mmol ester hydrolyzed/min/mg protein | 0.31 mmol ester hydrolyzed/min/mg protein |
| CCCC(=O)OCC1CO1 (stereo not shown) [Substrate 30] | 1.2 mmol ester hydrolyzed/min/mg protein | 2.0 mmol ester hydrolyzed/min/mg protein | 0.53 mmol ester hydrolyzed/min/mg protein | 3.4 mmol ester hydrolyzed/min/mg protein | 3.2 mmol ester hydrolyzed/min/mg protein | 14 mmol ester hydrolyzed/min/mg protein | 3.5 mmol ester hydrolyzed/min/mg protein |
| CCCC(=O)OCC(COC(=O)CCC)OC(=O)CCC [Substrate 29] | 450 mmol ester hydrolyzed/min/mg protein | 560 mmol ester hydrolyzed/min/mg protein | 280 mmol ester hydrolyzed/min/mg protein | 37 mmol ester hydrolyzed/min/mg protein | 550 mmol ester hydrolyzed/min/mg protein | 130 mmol ester hydrolyzed/min/mg protein | 370 mmol ester hydrolyzed/min/mg protein |
| COC(=O)CBr [Substrate 19] | 1.6 mmol ester hydrolyzed/min/mg protein | 1.6 mmol ester hydrolyzed/min/mg protein | 0.73 mmol ester hydrolyzed/min/mg protein | 2.4 mmol ester hydrolyzed/min/mg protein | 2.6 mmol ester hydrolyzed/min/mg protein | 7.6 mmol ester hydrolyzed/min/mg protein | 1.9 mmol ester hydrolyzed/min/mg protein |
| CCCC(=O)OCC1COC(C)(C)O1 (racemic) [Substrate 8, (±)-Solketal Butyrate, reference compound] | <0.1 mmol ester hydrolyzed/min/mg protein | <0.2 mmol ester hydrolyzed/min/mg protein | <0.1 mmol ester hydrolyzed/min/mg protein | <2 mmol ester hydrolyzed/min/mg protein | 0.16 mmol ester hydrolyzed/min/mg protein | 2.2 mmol ester hydrolyzed/min/mg protein | 0.13 mmol ester hydrolyzed/min/mg protein |
